# Experimental data taken from US7744920B2, “Use of liposomal glucocorticoids for treating inflammatory states” (Hadasit Medical Research Services & Development Limited, priority 2004, dated 2010).
# “And” between values parts separate entries of the source, which are not always exact repeats. Equal entries are not always repeated.
# Legend:
# Adjuvant Arthritis (AA) [1] = test: Effect of SSL-MPS on AA at peak of disease; type: in vivo, Lewis rats; settings: for AA score after the second injection at day 23: SSL-MPS and free-MPS 10 mg/kg BW on days 19, 23, Remicade 5 mg/kg on day 19; for clinical score immediately after the first injection: day 19, SSL-MPS and free-MPS 10 mg/kg BW, Remicade 5 mg/kg
# [2] = Loading efficiency of MPS into liposomes; type: physicochemical; settings: HSPC:Chol:2000PEG-DSPE liposomes
# Protocol: A stock solution of methylprednisolone hemisuccinate sodium salt (MPS, the GC derivative) was dissolved in 5% dextrose (pH 7.2) to a concentration of ˜9 mg/ml and added to the preformed SSL dispersion after the calcium acetate gradient was established. MPS concentration was ˜9 mg/ml and phospholipid ˜32 mM phosphate.
# Loading was achieved by incubation of the components above for the desired time at 62° C. (above matrix lipid Tm). Liposomes were then cooled to 4° C. and dialyzed against 5% dextrose at 4° C. to remove acetate released during loading and to remove unloaded drug or alternatively unloaded drug was removed by the ion exchanger Dowex 1×400 mesh (Cl^− form).
# Loading efficiency is the ratio between MPS/phospholipid concentrations after and before loading. The quantification of MPS was done in an HPLC apparatus as described by Anderson, and Taphouse 1981 [Anderson B. D. and Taphouse. V. J Pharm Sci, 70:181-6 (1981)], quantification of phospholipid was done by modified Bartlet procedure [Shmeeda, H., et al. In: Methods in Enzymology “Liposomes”, (Düzgünes, N., ed.), 367:272-292 (2003)].
# [3] = Protocol: Surface tension was measured using μtrouge S (Kibron Inc., Helsinki Finland). A solution containing GC derivative (300 μL) was placed in the well after calibration and zeroing of the sensor using pure water and air. The measurement was performed at 26° C.
# [4] = Precipitation of MPS in calcium acetate solution; type: physicochemical; settings: 600 mOsm Ca-acetate, 63° C, 5 mg/ml, 40 minutes
# Protocol: To 600 mOsm Ca-acetate solution at 63° C and at different pH points MPS was added at final concentration of 5 mg/ml, then mixed solution was incubated for 40 minutes after which the solution was centrifuged and the supernatant was analyzed using […].
# Adjuvant Arthritis (AA) [5] = test: Treatment of Adjuvant Arthritis (AA), injections from day 10 after induction; type: in vivo, Lewis rats; settings: 2 i.v. injections on days 10 and 14, 5 then 10 mg/kg BW (FIG. 7A)
# [6] = State of aggregation (turbidity) of MPS as function of pH; type: physicochemical
# Protocol: Aggregation of MPS was determined from the change in turbidity measured as intensity of light scattered at 90° to excitation beam using a spectrofluormeter under conditions that MPS lack absorbance (excitation and emission at the same wavelength Ex=600 nm Em=600 nm). There is a large increase in the light scattered by MPS solution/dispersion due to formation of aggregates.
# The intensity of scattered light (at 90° to the excitation), also defined as turbidity is proportional to concentration and to the size of the aggregates. [Zuidam, N. J. and Barenholz, Y., Biochim. Biophys. Acta 1368:115-128 (1998)]. The state of aggregation of MPS was tested in the following manner: To quartz cuvette MPS (2 ml) at concentration of ˜6.5mg/ml MPS was added. The solution was tittered with HCl (1.756 M) and light scattering using excitation and emission at (both at 600 nm with attenuation of 1%) and pH of the solution was monitored.
# [7] = Partition coefficient (logD) by shake flask; type: physicochemical; settings: FIG. 1B
# Protocol: Partition coefficient (logD) of some GC derivatives (which are amphipathic weak acids) was determined by the ‘shake flask’ as described [Samuni, A. M. and Barenholz, Y., Free Radicals Biol. Med. 22:1165-1174 (1997)].
# [8] = liposomal formulation, after 24 hours, ex vivo; cited from earlier work
# [9] = cited from earlier work
# [10] = Stability of liposomal formulation upon storage at 4° C. (gel exclusion chromatography); type: physicochemical; settings: encapsulated in liposome, storage at 4° C. for 14 months
# Protocol: The level of MPS released from SSL-MPS was determined by first separating the liposomes from free MPS using gel exclusion chromatography on Sepharose cross-linked CL-4B column using. Liposomes were eluted at the void volume and the free MPS at the later eluted fractions (FIG. 3A-3B). Stability upon storage at 4° C. and kinetic of release at 37° C. in 80% plasma was determined by gel exclusion chromatography described above. Then the different column fractions were analyzed as described above, for MPS, phospholipids and Ca in the void volume fraction.
compound,measurement,setting,value
"C[C@H]1C[C@@H]2[C@H]([C@@H](O)C[C@@]3(C)[C@H]2CC[C@]3(O)C(=O)COC(=O)CCC(=O)[O-])[C@@]2(C)C=CC(=O)C=C12.[Na+] [MPS, methylprednisolone sodium hemisuccinate]",AA score after the second injection at day 23,Adjuvant Arthritis (AA) [1],minimal decline
same,clinical score immediately after the first injection,Adjuvant Arthritis (AA) [1],very slow decline
same,% Encapsulation,"[2]; batch 04 May 2005, after dialysis",93.2%
same,% Encapsulation,"[2]; batch 06 Apr. 2005, after dialysis",96.6%
same,% Encapsulation,"[2]; batch 18 Jul. 2004, after dialysis",99.1%
same,CAC (critical association/aggregation concentration),[3]; 26° C.,~5 mM
same,surface activity,[3]; concentrations 0.785-30 mM,surface active at all concentrations used
same,% MPS precipitated,[4]; pH 4.5,97% and 96.6%
same,% MPS precipitated,[4]; pH 6.2,42.8%
same,% MPS precipitated,[4]; pH 6.8,44.1%
same,effect on AA,Adjuvant Arthritis (AA) [5],neither the free MPS nor the empty liposome had any effect on AA
same,state of aggregation (turbidity),[6]; acidic pH,aggregates
same,state of aggregation (turbidity),[6]; pH 7.2,non-aggregated water soluble
same,partition coefficient at different pH points,[7],amphipathic substance
"REMICADE: positive control, Remicade 5 mg/kg (on day 19)",AA score after the second injection at day 23,Adjuvant Arthritis (AA) [1],minimal decline
same,clinical score immediately after the first injection,Adjuvant Arthritis (AA) [1],very slow decline
triamcinolone acetonide phosphate,acidic corticosteroid retained by the liposome,[8],more than 75%
same,pKa,[9],below 2
C[C@H]1C[C@@H]2[C@H]([C@@H](O)C[C@@]3(C)[C@H]2CC[C@]3(O)C(=O)COC(=O)CCC(=O)O)[C@@]2(C)C=CC(=O)C=C12 [Methylprednisolone hemisuccinate],reduction in the GC derivative from initial concentration,[10],less than 20%
